In patent EP0993439B1, “4-BROMO OR 4-IODO PHENYLAMINO BENZHYDROXAMIC ACID DERIVATIVES AND THEIR USE AS MEK INHIBITORS” (priority 1997, dated 1999):
Blank lines part the entries; values can stand above or below the molecule they belong to.

How the values were obtained:
[1] = target: T1, MEK (Homo sapiens, UniProt Q02750); assay: Cascade assay for inhibitors of the MAP kinase pathway (32P incorporation into MBP with GST-MEK and GST-MAPK); format: biochemical; details: read-out: % Inhibition In Vitro
[2] = target: T1, MEK; assay: as above; format: biochemical; details: read-out: % Inhibition In Vitro; remark: listed apart in the source
Description: Incorporation of ^32P into myelin basic protein (MBP) was assayed in the presence of a glutathione S-transferase fusion protein containing p44MAP kinase (GST-MAPK) and a glutathione S-transferase fusion protein containing p45MEK (GST-MEK). The assay solution contained 20 mM HEPES, pH 7.4, 10 mM MgCl2, 1 mM MnCl2, 1 mM EGTA, 50 µM [γ-^32P]ATP, 10 µg GST-MEK, 0.5 µg GST-MAPK and 40 µg MBP in a final volume of 100 µL. […] Compounds were assessed at 10 µM for ability to inhibit incorporation of ^32P.
To ascertain whether compounds were inhibiting GST-MEK or GST MAPK, two additional protocols were employed. In the first protocol, compounds were added to tubes containing GST-MEK, followed by addition of GST-MAPK, MBP and [γ-^32P]ATP. In the second protocol, compounds were added to tubes containing both GST-MEK and GST-MAPK, followed by MBP and [γ-^32P]ATP.

[3] = system: murine colon tumor, C26/clone 10; assay: Murine colon tumor C26/clone 10 implanted subcutaneously in mice, compound given IP or PO on Days 1 through 14; format: in vivo, Male CD2F1 mice; details: for Change in Body Weight (grams): Days 1 through 14
Description: Male CD2F1 mice (NCI: Charles River, Kingston) were implanted subcutaneously with tumor fragments (approximately 30 mg) in the region of the right axilla on Day 0. […] The vehicle for the test compound, and for control animals, was 10% EtOH/10% Cremophor-EL (Sigma)/80% H2O, pH 5.0. Tumor volumes were recorded three times per week by measuring the length and width of the individual tumors and calculating mass in milligrams according to the formula (a × b^2)/2, where a and b are the length and width of the tumor. Percent treated/control (T/C) was calculated based on the ratio of the median tumor volume of the treated tumors compared with the median tumor volume of control animals on specified measurement days.

T1 sequence (Q02750 whole entry): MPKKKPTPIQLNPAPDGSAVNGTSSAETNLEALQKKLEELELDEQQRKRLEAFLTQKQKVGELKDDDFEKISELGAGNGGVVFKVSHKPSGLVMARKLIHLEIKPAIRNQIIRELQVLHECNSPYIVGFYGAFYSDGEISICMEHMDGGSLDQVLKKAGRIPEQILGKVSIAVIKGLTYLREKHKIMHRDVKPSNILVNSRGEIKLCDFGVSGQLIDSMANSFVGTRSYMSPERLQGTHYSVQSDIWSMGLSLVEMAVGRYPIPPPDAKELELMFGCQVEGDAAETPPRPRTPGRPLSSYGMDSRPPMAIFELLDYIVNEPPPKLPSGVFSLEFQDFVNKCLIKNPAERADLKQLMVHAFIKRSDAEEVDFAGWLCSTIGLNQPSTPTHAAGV

Compound: Cc1ccc(Cl)c(Nc2ccccc2C(=O)N(C)O)c1Cl [the 8th table: R6=CH3, R7=H]
inhibition at 1 µM [1]: -5%
inhibition at 10 µM [2]: 19%

Compound: Cc1ccc(Cl)c(Nc2ccccc2C(=O)N(O)Cc2ccccc2)c1Cl [the 8th table: R6=CH2-Ph, R7=H]
inhibition at 1 µM [1]: -4%
inhibition at 10 µM [2]: 18%

Compound: CONC(=O)c1ccccc1Nc1c(Cl)ccc(C)c1Cl [the 8th table: R6=H, R7=CH3]
inhibition at 1 µM [1]: -8%
inhibition at 10 µM [2]: 8%

Compound: O=C(NOCC1CC1)c1ccc(F)c(F)c1Nc1ccc(I)cc1Cl [Example 95, 3,4-Difluoro-2-(2-chloro-4-iodo-phenylamino)-N-cyclopropylmethoxy-benzamide]
% T/C (Day 15) ([3]; IP, 48 mg/kg/day): 41%
Change in Body Weight (grams) ([3]; IP, 48 mg/kg/day): +3 grams
% T/C (Day 15) ([3]; IP, 77 mg/kg/day): 2%
Change in Body Weight (grams) ([3]; IP, 77 mg/kg/day): +2 grams
% T/C (Day 15) ([3]; IP, 124 mg/kg/day): 4%
Change in Body Weight (grams) ([3]; IP, 124 mg/kg/day): +3 grams
% T/C (Day 15) ([3]; IP, 200 mg/kg/day): 0%
Change in Body Weight (grams) ([3]; IP, 200 mg/kg/day): +2 grams
% T/C (Day 17) ([3]; PO, 71 mg/kg/day): 36%
Change in Body Weight (grams) ([3]; PO, 71 mg/kg/day): +2 grams
% T/C (Day 17) ([3]; PO, 115 mg/kg/day): 21%
Change in Body Weight (grams) ([3]; PO, 115 mg/kg/day): +2 grams
% T/C (Day 17) ([3]; PO, 186 mg/kg/day): 25%
Change in Body Weight (grams) ([3]; PO, 186 mg/kg/day): +2 grams
% T/C (Day 17) ([3]; PO, 300 mg/kg/day): 17%
Change in Body Weight (grams) ([3]; PO, 300 mg/kg/day): +2 grams

More lines, now with the values ahead:

inhibition at 1 µM [1]: 13%
inhibition at 10 µM [2]: 19%
Compound: Cc1cccc(Nc2ccccc2C(=O)N(C)O)c1C [the 9th table: R6=CH3, R7=H]

inhibition at 1 µM [1]: -6%
inhibition at 10 µM [2]: 12%
Compound: CONC(=O)c1ccccc1Nc1cccc(C)c1C [the 9th table: R6=H, R7=CH3]

inhibition at 1 µM [1]: 17%
inhibition at 10 µM [2]: 9%
Compound: Cc1ccc(Cl)c(Nc2ccccc2C(=O)N(O)C(C)C)c1Cl [the 8th table: R6=iPr, R7=H]

inhibition at 1 µM [1]: -11%
inhibition at 10 µM [2]: 7%
Compound: Cc1cccc(Nc2ccccc2C(=O)N(O)C(C)C)c1C [the 9th table: R6=iPr, R7=H]

inhibition at 1 µM [1]: 9%
inhibition at 10 µM [2]: -3%
Compound: Cc1ccc(Cl)c(Nc2ccccc2C(=O)NO)c1Cl [the 8th table: R6=H, R7=H]

inhibition at 1 µM [1]: 6%
inhibition at 10 µM [2]: -4%
Compound: Cc1cccc(Nc2ccccc2C(=O)NO)c1C [the 9th table: R6=H, R7=H]
